Data taken from patent publication US12312343B2, “Rotomeric isomers of 4-alkyl-5-heteroaryl-3H-1,2-dithiole-3-thiones” (ST IP HOLDING AG, priority 2018, dated 2025).

Experiments:
ALOX12 = assay: Human oxidative stress RT2 Profiler PCR array in HGEPp cells: ALOX12; format: cell-based; conditions: 100 μg/ml, 24 h, RT-PCR ΔΔCt
Method: (§1) RT-PCR was performed on an iCycler.

SOD1 = assay: Human oxidative stress RT2 Profiler PCR array in HGEPp cells: SOD1; format: cell-based; conditions: 100 μg/ml, 24 h, RT-PCR ΔΔCt
Method: as §1

GPX1 = assay: Human oxidative stress RT2 Profiler PCR array in HGEPp cells: GPX1; format: cell-based; conditions: 100 μg/ml, 24 h, RT-PCR ΔΔCt
Method: as §1

NQO1 = assay: Human oxidative stress RT2 Profiler PCR array in HGEPp cells: NQO1; format: cell-based; conditions: 100 μg/ml, 24 h, RT-PCR ΔΔCt
Method: as §1

GCLC = assay: Human oxidative stress RT2 Profiler PCR array in HGEPp cells: GCLC; format: cell-based; conditions: 100 μg/ml, 24 h, RT-PCR ΔΔCt
Method: as §1

GSTP1 = assay: Human oxidative stress RT2 Profiler PCR array in HGEPp cells: GSTP1; format: cell-based; conditions: 100 μg/ml, 24 h, RT-PCR ΔΔCt
Method: as §1

GCLM = assay: Human oxidative stress RT2 Profiler PCR array in HGEPp cells: GCLM; format: cell-based; conditions: 100 μg/ml, 24 h, RT-PCR ΔΔCt
Method: as §1

GTF2i = assay: Human oxidative stress RT2 Profiler PCR array in HGEPp cells: GTF2i; format: cell-based; conditions: 100 μg/ml, 24 h, RT-PCR ΔΔCt
Method: as §1

PTGS1 = assay: Human oxidative stress RT2 Profiler PCR array in HGEPp cells: PTGS1; format: cell-based; conditions: 100 μg/ml, 24 h, RT-PCR ΔΔCt
Method: as §1

UCP2 = assay: Human oxidative stress RT2 Profiler PCR array in HGEPp cells: UCP2; format: cell-based; conditions: 100 μg/ml, 24 h, RT-PCR ΔΔCt
Method: as §1

HGEPp cells = assay: ROS production in H2O2-induced oxidatively stressed HGEPp cells; conditions: HGEPp cells pretreated 24 hrs at 100 μg/mL, then 0.3 mM H2O2 for 4 h; positive control 139%
MPO = assay: Human oxidative stress RT2 Profiler PCR array in HGEPp cells: MPO; conditions: 100 μg/ml, 24 h, RT-PCR ΔΔCt
Method: (§2) Pooled primary HGEPp cells were propagated in CnT-Prime epithelial culture medium provided by CellnTec on 100 mm petri dishes coated with 30 mg/ml Type I rat tail collagen (BD Biosciences) diluted in Dulbecco's phosphate-buffered saline (DPBS). HGEPp cells were grown in 12×60 mm Nunc™ Cell Culture dishes at a 2.5×10^4 cells/cm2 density concentration.
(§3) All dosing solutions contained 0.3% of DMSO which is well below the maximum tolerated DMSO percent of 0.8% for HGEPp cells.
(§4) The cDNA from above was mixed with the RT2 SYBR Green fluor Mastermix and aliquoted into the wells of the RT2 Profiler PCR Array. RT-PCR was performed on an iCycler. Gene expression was compared using Ct values and the results were calculated using ΔΔ Ct method with normalization to the average expression levels of the five common genes (ACTB, B2M, GAPDH, HPRT, and RPL13A).

GPX4 = assay: Human oxidative stress RT2 Profiler PCR array in HGEPp cells: GPX4; conditions: 100 μg/ml, 24 h, RT-PCR ΔΔCt
Method: as §2, §3, §4

PRDX2 = assay: Human oxidative stress RT2 Profiler PCR array in HGEPp cells: PRDX2; conditions: 100 μg/ml, 24 h, RT-PCR ΔΔCt
Method: as §2, §3, §4

Compound | ALOX12 up regulation relative fold change (ALOX12) | SOD1 up regulation relative fold change (SOD1) | GPX1 up regulation relative fold change (GPX1) | NQO1 up regulation relative fold change (NQO1) | GCLC up regulation relative fold change (GCLC) | GSTP1 up regulation relative fold change (GSTP1) | GCLM up regulation relative fold change (GCLM) | GTF2i down regulation relative fold change (GTF2i) | PTGS1 down regulation relative fold change (PTGS1) | UCP2 down regulation relative fold change (UCP2) | ROS level (optical density, Normal = 100% baseline) (HGEPp cells) | MPO up regulation relative fold change (MPO) | GPX4 up regulation relative fold change (GPX4) | PRDX2 down regulation relative fold change (PRDX2) | further results
Cc1c(-c2cnccn2)ssc1=S.Cl [Example 1, hydrochloride complex of oltipraz] | 6.38 fold | 3.86 fold | 4.81 fold | 3.14 fold | 3.35 fold | 2.77 fold | 2.33 fold | 0.33 fold | 0.28 fold | 0.26 fold | 128% | 3.22 fold | 2.86 fold | 0.31 fold | 
Cc1c(-c2cncc[n+]2OC2=CC(=O)OC2=O)ssc1=S [Example 2, hydroxymaleate anhydride complex of oltipraz] | 6.46 fold | 5.13 fold | 4.8 fold | 4.07 fold | 4.52 fold | 3.07 fold | 3.01 fold | 0.26 fold | 0.23 fold | 0.15 fold | 116% | 3.21 fold | 2.84 fold | 0.26 fold | 
Cc1c(-c2cnccn2)ssc1=S.O=S(=O)(O)CCO [Example 10, isethionic acid complex of oltipraz] | 6.48 fold | significantly higher up-regulation | 4.86 fold | significantly higher up-regulation | significantly higher up-regulation | significantly higher up-regulation | significantly higher up-regulation | 0.31 fold | 0.22 fold | 0.16 fold | 113% | 3.39 fold | 2.79 fold | 0.28 fold | SOD1 up regulation relative fold change (SOD1; listed as Ex. 10): 5.23 fold; NQO1 up regulation relative fold change (NQO1; listed as Ex. 10): 4.26 fold; GCLC up regulation relative fold change (GCLC; listed as Ex. 10): 4.52 fold; GSTP1 up regulation relative fold change (GSTP1; listed as Ex. 10): 3.18 fold; GCLM up regulation relative fold change (GCLM; listed as Ex. 10): 3.11 fold
Diethyl Thiophosphate Complex of Oltipraz [Example 8] | 6.41 fold | 4.86 fold | 4.81 fold | 3.92 fold | 4.39 fold | 3.08 fold | 3.02 fold | 0.29 fold | 0.23 fold | 0.14 fold | 115% | 3.47 fold | 3.02 fold | 0.28 fold | 
acetyl chloride complex of oltipraz [Example 3] | 6.33 fold | 4.24 fold | 4.76 fold | 3.36 fold | 3.27 fold | 2.87 fold | 2.38 fold | 0.32 fold | 0.29 fold | 0.26 fold | 129% | 3.10 fold | 2.83 fold | 0.33 fold | 
benzoyl chloride complex of oltipraz [Example 6] | 5.93 fold | 3.92 fold | 4.43 fold | 3.17 fold | 3.31 fold | 2.74 fold | 2.25 fold | 0.36 fold | 0.28 fold | 0.28 fold | 131% | 3.05 fold | 2.91 fold | 0.31 fold | 
diethyl dithiophosphate complex of oltipraz [Example 7] | 6.38 fold | 4.85 fold | 4.72 fold | 3.93 fold | 4.41 fold | 3.13 fold | 3.00 fold | 0.29 fold | 0.21 fold | 0.17 fold | 117% | 3.42 fold | 2.99 fold | 0.28 fold | 
dimethyl phosphate complex of N-methyl oltipraz [Example 9] | 6.43 fold | significantly higher up-regulation | 4.89 fold | significantly higher up-regulation | significantly higher up-regulation | significantly higher up-regulation | significantly higher up-regulation | 0.28 fold | 0.21 fold | 0.15 fold | 112% | 3.41 fold | 2.93 fold | 0.27 fold | SOD1 up regulation relative fold change (SOD1; listed as Ex. 9): 5.22 fold; NQO1 up regulation relative fold change (NQO1; listed as Ex. 9): 4.24 fold; GCLC up regulation relative fold change (GCLC; listed as Ex. 9): 4.60 fold; GSTP1 up regulation relative fold change (GSTP1; listed as Ex. 9): 3.16 fold; GCLM up regulation relative fold change (GCLM; listed as Ex. 9): 3.15 fold
methyl iodide complex of oltipraz [Example 5] | 6.04 fold | 3.89 fold | 4.98 fold | 3.15 fold | 3.38 fold | 2.90 fold | 2.27 fold | 0.33 fold | 0.28 fold | 0.29 fold | 134% | 3.18 fold | 2.85 fold | 0.32 fold | 
n-butyl chloride complex of oltipraz [Example 4] | 5.82 fold | 4.15 fold | 4.80 fold | 3.34 fold | 3.35 fold | 2.88 fold | 2.38 fold | 0.35 fold | 0.27 fold | 0.25 fold | 128% | 3.20 fold | 2.96 fold | 0.32 fold | 
thiobenzoic acid complex of oltipraz [Example 11] | 6.39 fold | 4.96 fold | 4.82 fold | 4.09 fold | 4.46 fold | 3.07 fold | 3.08 fold | 0.29 fold | 0.22 fold | 0.15 fold | 116% | 3.44 fold | 2.94 fold | 0.27 fold | 
